Values joined by “and” are separate entries in the source; they are usually repeats but may differ in a detail not shown here. Equal values may be shown once. Read-outs that look alike come from different tables or passages of the source.
What was measured:
PDE10A [1] = conditions: cited from earlier work
[2] = Log P measurement, 1-octanol/PBS pH 7.4; type: physicochemical; conditions: 1-octanol / 0.1 mol/L PBS pH 7.4, Log D7.4 taken as Log P
Protocol: Log P was measured according to the previous report (Li et al. 2013b), by adding different volumes of [^11C]TZ1964B or [^18F]MNI659 into a mixture of 1‐octanol (3 mL) and 0.1 mol/L phosphate‐buffered saline (PBS, pH 7.4, 3 mL). The mixture was vortexed and then centrifuged. Then, 2 mL organic layer was mixed with 1 mL 1‐octanol and 3 mL PBS buffer. The resulting mixture was vortexed and centrifuged again. Then 1 mL of the organic layer and 1 mL of the aqueous layer were separated and loaded in a gamma counter. The results were corrected for background radiation and physical decay. The partition coefficient Log D7.4, which equals Log P, was calculated as the decimal logarithm the ratio of cpm/mL of 1‐octanol to that of PBS.

[3] = radiometabolite analysis of NHP arterial plasma by HPLC; type: in vivo, cynomolgus monkey; conditions: 60 min post injection, n = 1
Protocol: The radiometabolite analysis was performed according to previous reports (Tu et al. 2011, 2015). Arterial blood samples (1.2–1.5 mL) were collected in a heparinized syringe at 2, 5, 15, 30, and 60 min (for [^11C]TZ1964B) or 5, 15 30, 60, 90, and 120 min (for [^18F]MNI659) postinjection of each radiotracer. Plasma (400 μL) was collected by centrifugation of the whole blood and mixed with ice‐cold methanol (0.92 mL) to deproteinate and extract the parent compound and radiolabeled metabolites. After centrifugation, the supernatant was mixed with water (1/1, v/v), and loaded onto a HPLC system with an Agilent SB C‐18 analytical HPLC column (250 mm × 4.6 mm, 5 μ) and a UV detector with 254 nm wavelength. The mobile phase was acetonitrile/0.1 mol/L ammonium formate buffer pH 4.5, (52/48, v/v) with a flow rate of 1.0 mL/min. The eluted fractions were collected for 16 min at 1 min intervals; the radioactivity of in each fraction was counted in a well counter, and results were corrected for background radiation and physical decay.

PDE10A [4] = test: microPET imaging of NHP brain, reference-based kinetic analysis and AUC ratio; type: in vivo, cynomolgus monkey; conditions: for AUC ratio: 60-120 min; for AUC ratio / BPND-Logan / BPND-SRTM / AUC ratio (Stri/Cere) / R1 / k2: mean ± SD; for AUC ratio (Stri/Cere): NHP striatum to cerebellum, 60-120 min data; for time of peak (max SUV) striatal uptake: post injection, averaged SUV curves
Protocol: PET imaging studies were carried out on two adult male cynomolgus monkeys, weighing on 7–8 kg. Subject A underwent three sets of double scans, and Subject B underwent one set of double scans. Animals were prepared for microPET studies as previously reported (Liu et al. 2015). About 1.5–2.5% isoflurane inhalation anesthesia was maintained throughout the microPET imaging sessions. A 20‐gage plastic catheter was inserted into a limb vein to permit hydration and injection of the radiotracer. Arterial blood was collected through another 20‐gage plastic catheter which was placed into a femoral artery.
The imaging studies of [^11C]TZ1964B and [^18F]MNI659 in the NHP brain through double scans were done using a MicroPET Focus 220 scanner (Concorde/CTI/Siemens Microsystems, Knoxville, TN). For all the double scans, [^11C]TZ1964B studies were performed in the morning and [^18F]MNI659 in the afternoon, with an interval of ~3 h between the injection of each tracer. Prior to each PET acquisition, a 45‐min transmission scan for attenuation correction was performed following a 10 min transmission that was used to check the position of the brain within the scanner. Subsequently, 296–370 MBq of [^11C]TZ1964B or [^18F]MNI659 was intravenously injected, and a 120 min dynamic (3 × 1‐min frames, 4 × 2‐min frames, 3 × 3‐min frames, and 20 × 5‐min frames) PET scan was acquired.
The PET images were processed according to the previous report (Liu et al. 2015). Briefly, emission scans were corrected and reconstructed using filtered back projection as described previously (Miller et al. 1989). The final reconstructed resolution was 2.00 mm full width at half maximum (FWHM) for all three dimensions (axial) at center of the field of view. The actual field of view is 25.8 cm diameter and a 7.6 cm axial length. The reconstructed PET images was co‐registered with magnetization‐prepared rapid gradient echo (MP‐RAGE) MR images using Automated Image Registration (AIR) (Woods et al. 1993), and superimposed using Analyze 10.0 (AnalyzeDirect, Overland Park, KS) for quality control. For quantitative analyses, three‐dimensional regions of interest (ROIs) for cerebellum (Subject A: 583 voxels; Subject B: 750 voxels, the voxel size is 1.858 mm × 1.858 mm × 0.796 mm = 2.75 μL), striatum (A: 695 voxels; B: 1158 voxels), frontal cortex (A: 263 voxels; B: 225 voxels), midbrain (A: 64 voxels; B: 118 voxels), and hippocampus (A: 68 voxels; B: 64 voxels) were identified on MRI images and then transformed into PET images using the co‐registration transformation matrix. The ROIs for each animal were kept fixed for all subsequent studies once identified on a baseline scan. Time–activity curves (TACs) for each ROI were then obtained from the dynamic PET images. Standardized uptake value (SUV) of each tracer was calculated and standardized to the body weight and the injected dose of radioactivity.
Regional tracer uptake was quantified using two different reference‐based kinetic methods: Logan Reference (LoganREF) model (Logan et al. 1990, 1996; Innis et al. 2007; Liu et al. 2015) and simplified reference tissue model (SRTM) (Lammertsma and Hume 1996; Gunn et al. 1997; Innis et al. 2007; Liu et al. 2015). According to the LoganREF model, the distribution volume ratio (DVR) of each ROI was calculated using a MATLAB (Mathworks Inc., Natick, MA). The nondisplaceable binding potential (BPND) was then estimated: BPND = DVR‐1. BPND and R1, k 2 values were also obtained from the SRTM model (Lammertsma and Hume 1996; Watabe et al. 1996).
We also calculated the area under the time–activity curve (AUC) for the striatal to cerebellar ratio (AUC‐striatum/AUC‐cerebellum); this is a simple model and input function‐independent method to quantify an index of tracer accumulation in the brain (Muller Herde et al. 2015). […] Ideally, the AUC ratio equals the DVR determined by LoganREF model (Muller Herde et al. 2015). […]

PDE10A [5] = conditions: cited from earlier work; remark: listed apart in the source
[6] = NHP frontal cortex to cerebellum
[7] = NHP midbrain to cerebellum, n = 4 scans in 2 NHPs
[8] = NHP striatum, LoganREF model, cerebellum reference, n = 4 scans in 2 NHPs
[9] = NHP striatum, SRTM, cerebellum reference, n = 4 scans in 2 NHPs
[10] = Figure 1, no reference given, read-out: Kd

Compound | logP [2] | percentage of parent compound in plasma [3] | AUC ratio (PDE10A [4]; [6]) | BPND-Logan (PDE10A [4]; NHP frontal cortex) | BPND-SRTM (PDE10A [4]; NHP frontal cortex) | AUC ratio (PDE10A [4]; NHP hippocampus to cerebellum) | BPND-Logan (PDE10A [4]; NHP hippocampus) | BPND-SRTM (PDE10A [4]; NHP hippocampus) | AUC ratio (PDE10A [4]; [7]) | BPND-Logan (PDE10A [4]; NHP midbrain) | BPND-SRTM (PDE10A [4]; NHP midbrain) | AUC ratio (Stri/Cere) (PDE10A [4]; n = 4 scans in 2 NHPs) | BPND-Logan (PDE10A [4]; [8]) | BPND-SRTM (PDE10A [4]; [9]) | R1 (PDE10A [4]; NHP striatum, SRTM) | k2 (PDE10A [4]; NHP striatum, SRTM) | time of peak (max SUV) striatal uptake (PDE10A [4]; NHP striatum) | Kd (PDE10A [5]; [10]) | also measured
COc1cc2ccccc2nc1COc1ccc(-c2nn(C)cc2-c2ccncc2)cc1 [TZ1964B] | 1.98 |  |  |  |  |  |  |  |  |  |  |  |  |  |  |  |  |  | IC50 (PDE10A [1]; in vitro binding potency, ref Li et al. 2013a, read-out: IC50 toward PDE10A): 0.4 ± 0.02 nM
Cc1ccc2c(=O)n(-c3ccc(OCC[18F])cc3)c(CCN3C(=O)c4cccc(OC(C)C)c4C3=O)nc2c1 [[^18F]MNI659, 2‐(2‐(3‐(4‐(2‐[^18F]fluoroethoxy)phenyl)‐7‐methyl‐4‐oxo‐3,4‐dihydroquinazolin‐2‐yl)ethyl)‐4‐isopropoxyisoindoline‐1,3‐dione] | 1.98 ± 0.06 | ~ 50% | 1.37 ± 0.12 | 0.29 ± 0.10 | 0.29 ± 0.09 | 1.08 ± 0.23 | 0.11 ± 0.18 | 0.16 ± 0.20 | 2.59 ± 0.42 | 1.02 ± 0.14 | 1.11 ± 0.16 | 7.60 and 7.60 ± 2.68 | 5.08 and 5.08 ± 1.62 | 5.33 and 5.33 ± 1.36 | 1.20 ± 0.20 | 0.28 ± 0.13 min⁻¹ | about 10 min | 0.097 nM | striatal K2 value relative to [^11C]TZ1964B (PDE10A [4]; NHP striatum, SRTM): twofold
Cc1ccc2c(=O)n(-c3ccc(OCCF)cc3)c(CCN3C(=O)c4cccc(OC(C)C)c4C3=O)nc2c1 [MNI659] | 1.98 |  |  |  |  |  |  |  |  |  |  |  |  |  |  |  |  |  | Kd (PDE10A [5]; in vitro, given as Kd in Figure 1, ref Barret et al. 2014, read-out: binding potency for PDE10A): 0.097 nM
Cn1cc(-c2ccncc2)c(-c2ccc(OCc3nc4ccccc4cc3O[11CH3])cc2)n1 [[^11C]TZ1964B, 3‐[^11C]methoxy‐2‐((4‐(1‐methyl‐4‐(pyridin‐4‐yl)‐1H‐pyrazol‐3‐yl)phenoxy)methyl)‐quinoline] | 1.98 ± 0.09 | ~ 70% | 1.38 ± 0.13 | 0.15 ± 0.05 | 0.43 ± 0.28 | 1.35 ± 0.41 | 0.11 ± 0.25 | 0.32 ± 0.50 | 1.51 ± 0.47 | 0.26 ± 0.20 | 0.57 ± 0.30 | 5.87 and 5.87 ± 0.45 | 3.72 and 3.72 ± 0.62 | 4.39 and 4.39 ± 0.39 | 1.16 ± 0.17 | 0.13 ± 0.017 min⁻¹ | 40 to 60 min | 1.25 ± 0.2 nM | Ki (PDE10A [1]; Figure 1, no reference given): 0.4 ± 0.02 nM

— article PMC5045939, “Comparison of [^11C]TZ1964B and [^18F]MNI659 for PET imaging brain PDE10A in nonhuman primates” (Pharmacology Research & Perspectives, 2016)
